Test system: E. coli
Assay: MALDI-TOF (MALDI Biotyper) growth-based resistance/susceptibility determination of the test cell substrate in CTX-containing Mueller-Hinton nutrient medium
Set-up: species or system Escherichia coli
Conditions: CTX 1 μg/mL; for logarithm of the similarity measure (log(score)), best match of second preparation: 4 h incubation
From the text: As proof of principle for the feasibility of the disclosed procedure, a cefotaxime-susceptible E. coli was selected as the test cell substrate and applied to the determination of a characteristic of the microorganism under investigation using a MALDI Biotyper® system. For this purpose, the resistance/susceptibility of the test cell substrate to a growth-influencing substance, in this example the antibiotic cefotaxime (CTX), was investigated using a prior art method and the method disclosed herein.
The test cell substrate was incubated in nutrient medium, Mueller-Hinton nutrient medium (first preparation—FIG. 2), and the same nutrient medium containing CTX at a concentration of 1 μg/mL (second preparation—FIGS. 3 and 4). The first preparation served as a growth control. The second preparation was used to determine the resistance/susceptibility of the test cell substrate to CTX.
To create the preparations, a large volume (stock suspension) of a cell suspension, here about 12 mL, otherwise regularly 10 to 50 mL, of the test cell substrate was prepared in Mueller-Hinton nutrient medium, a liquid nutrient medium. The concentration of the test cell substrate in the stock suspension was determined densitometrically in order to use an appropriate and equal amount of the test cell substrate for the first and second preparations. A small volume was taken from this stock suspension for the first preparation and transferred to a well of a microtiter plate. Since the first preparation was designed as a growth control, no antibiotic was present in the well. Simultaneously, for a second preparation, the same volume of stock suspension was removed and transferred to another well of the microtiter plate, thereby dissolving the antibiotic CTX, which was present in dried form in the well of the second preparation, for a final concentration of 1 μg/mL. The microtiter plate was then agitated to ensure complete dissolution and homogeneous distribution of the antibiotic in the cavity of the second preparation. Further preparations in the form of a concentration-dilution series for determining of a minimum inhibitory concentration (MIC) of the antibiotic CTX is easy to generate by selectively dissolving the dried CTX in additional wells of the microtiter plate. For example, a CTX concentration of 0.5 μg/mL can be set in the Mueller-Hinton nutrient medium in a third well for another preparation, and a CTX concentration of 2 μg/mL can be set in a fourth well for yet another preparation. Thus, the dilution series can comprise the CTX concentrations 0.5, 1 and 2 μg/mL, while additional dilution steps, e.g., 0.25 or 4 μg/mL can be included. Such a dilution series can also be performed in dilution steps of different sizes of the CTX concentration. […]

**Q.** With `CO/N=C(\C(=O)N[C@@H]1C(=O)N2C(C(=O)O)=C(COC(C)=O)CS[C@H]12)c1csc(N)n1` [CTX, cefotaxime] as the compound, how does the “logarithm of the similarity measure (log(score)), best match of second preparation” value (compared with entire reference library (prior art method), best match Citrobacter farmeri, >=1.7 read as growth/resistance) read?
**A.** 1.83

**Q.** What about the “logarithm of the similarity measure (log(score)), best match of second preparation” value (compared with first sub-library (five best E. coli reference datasets), <1.7 read as no growth/susceptibility) of the same compound?
**A.** 1.13

**Q.** And the “property resistance or susceptibility to CTX” value (compared with entire reference library (prior art method), patent calls this result false-positive)?
**A.** CTX-resistant

**Q.** What about the “property resistance or susceptibility to CTX” value (compared with first sub-library (method of the invention)) of the same compound?
**A.** CTX-susceptible

Reference: patent US12595503B2, “Reference dataset-based, spectrometric characterization of cell substrates using sub-libraries” (priority 2021, dated 2026)
